B1: MOR00208: anti-CD19 antibody; heavy chain SEQ ID NO: 14, light chain SEQ ID NO: 15 (antibody)
heavy: EVQLVESGGGLVKPGGSLKLSCAASGYTFTSYVMHWVRQAPGKGLEWIGYINPYNDGTKYNEKFQGRVTISSDKSISTAYMELSSLRSEDTAMYYCARGTYYYGTRVFDYWGQGTLVTVSSASTKGPSVFPLAPSSKSTSGGTAALGCLVKDYFPEPVTVSWNSGALTSGVHTFPAVLQSSGLYSLSSVVTVPSSSLGTQTYICNVNHKPSNTKVDKKVEPKSCDKTHTCPPCPAPELLGGPDVFLFPPKPKDTLMISRTPEVTCVVVDVSHEDPEVQFNWYVDGVEVHNAKTKPREEQFNSTFRVVSVLTVVHQDWLNGKEYKCKVSNKALPAPEEKTISKTKGQPREPQVYTLPPSREEMTKNQVSLTCLVKGFYPSDIAVEWESNGQPENNYKTTPPMLDSDGSFFLYSKLTVDKSRWQQGNVFSCSVMHEALHNHYTQKSLSLSPGK
light: DIVMTQSPATLSLSPGERATLSCRSSKSLQNVNGNTYLYWFQQKPGQSPQLLIYRMSNLNSGVPDRFSGSGSGTEFTLTISSLEPEDFAVYYCMQHLEYPITFGAGTKLEIKRTVAAPSVFIFPPSDEQLKSGTASVVCLLNNFYPREAKVQWKVDNALQSGNSQESVTEQDSKDSTYSLSSTLTLSKADYEKHKVYACEVTHQGLSSPVTKSFNRGEC

Test system: MEC-1 cells
Experiment: ADCC target cell killing of MEC-1 cells by NK cells (FACS, DAPI positive dead target cells), MOR00208 and Ibrutinib alone and in combination
Format: cell-based
Description: Cell lines tested: MEC-1 cells (DSMZ # ACC497). Cell lines are tested: chronic B-cell leukemia cell line; JVM-2 (ATCC® CRL-3002) a mantle cell lymphoma cell line; Ramos cells (ATCC number CRL-1596), a human Burkitt's lymphoma cells; HG-3 (DSMZ # ACC765), and CII (DSMZ # ACC773) are a chronic lymphocytic leukemia cell line; Su-DHL 6 (DSMZ # ACC572), U2932 (DSMZ # ACC633) and OCI-LY7 (DSMZ # ACC688) are a Diffuse large B-cell lymphoma (DLBCL) cell line; JVM-2 (ATCC® CRL-3002) is a mantle cell lymphoma cell line; and BALL-1 (DSMZ # ACC742) is an acute lymphoblastic leukemia cell line.
The cytotoxicity of MOR00208 and Ibrutinib alone and in combination were tested in the MEC-1 cell line (CLL). The cytotoxicity of MOR00208 and Ibrutinib alone and in combination are tested in the following target cell lines: JVM-2, Ramos, HG-3, CII, Su-DHL 6, U2932, OCI-LY7, JVM-2 and BALL-1.
Ibrutinib is a covalent inhibitor of Bruton's tyrosine kinase and should abrogate proliferation in target cell lines. MOR00208 targets CD19 and mediates target cell killing via ADCC. Target cell killing is measured using the following parameters: Ibrutinib at a concentration range of between 0.033 and 33 μM, specifically at 0.3 μM, 1.0 μM and 3.0 μM; MOR00208 at a concentration range from 0.001-10 nM, specifically at 0.01 nM, 0.1 nM, and 10 nM, and the combination of MOR00208 and Ibrutinib. The following are used as controls: RefmAb33 or NK cells alone. In the Ibrutinib group as well as in the MOR00208+Ibrutinib combination group, target cells are pre-treated with Ibrutinib for 7 days prior to the ADCC assay measurements. The target cells are counted and stained using 1 μg/ml CFSE end concentration. For DMSO treated target cells, an effector: target (E:T) ratio of 2:1 is chosen, corresponding to a cell density of 5×10^5/ml. The proliferative effect on target cells caused by Ibrutinib treatment was included by adjusting the E:T ratio in inhibitor treated cells. The NK cells are counted and adjusted to 1×10^6/ml. The target cell killing assays were performed as follows: using 96 well plates, 100 μl of target cell suspension was added per well, followed by 100 μl cell suspension of NK cells to each well resulting in an E:T ratio of 2:1. The antibodies were diluted in a range of 10-0.001 nM in medium. Cells were centrifuged and target: effector cell-pellets were re-suspended in 100 μl antibody-containing medium or the according control solution. The assay was incubated for 4 h in CO2-incubator at 37° C. After 10 min incubation on ice, 50 μl DAPI solution was added to each well (final concentration 1 μg/ml) and incubated on ice for 10 min. The cell killing measurements were performed with FACS-Verse. Dead target cells were DAPI positive.
In total, three experiments were performed in order to determine the mediation of ADCC on MEC-1 cells by the combination of MOR00208 and Ibrutinib.
The raw data (% dead cells) are analyzed as follows: 1) from the raw data (% dead cells), the background (controls) are subtracted, resulting in the specific killing for each treatment group; then 2) the specific killing values are normalized by setting the combination of MOR00208+Ibrutinib to 1.
Combination Index (CI) calculations are completed in order to determine synergy of the combination of the exemplified anti-CD19 antibody and Ibrutinib as compared to MOR00208 and Ibrutinib alone. Such calculations are described in Ting-Chao Chou, Theoretical Basis, Experimental Design, and Computerized Simulation of Synergism and Antagonism in Drug Combination Studies, Pharmacol Rev 58:621-681 (2006), which is incorporated by reference in its entirety and Chou T C, Talalay P, Quantitative analysis of dose-effect relationships: the combined effects of multiple drugs or enzyme inhibitors. Adv Enzyme Regul 22: 27-55 (1984), which is incorporated by reference in its entirety. The methods of Chou-Talalay are carried out using the CI-isobol method. […]

[1] = Experiment 1, Ibrutinib at 0.3 μM, MOR00208 0.01 nM, control (0.1% DMSO/Ref33) 25.27
[2] = Experiment 1, Ibrutinib at 0.3 μM, MOR00208 0.1 nM, control (0.1% DMSO/Ref33) 25.27
[3] = Experiment 1, Ibrutinib at 0.3 μM, MOR00208 10 nM, control (0.1% DMSO/Ref33) 25.27
[4] = Experiment 1, Ibrutinib at 1 μM, MOR00208 0.01 nM, control (0.1% DMSO/Ref33) 25.27
[5] = Experiment 1, Ibrutinib at 1 μM, MOR00208 0.1 nM, control (0.1% DMSO/Ref33) 25.27
[6] = Experiment 1, Ibrutinib at 1 μM, MOR00208 10 nM, control (0.1% DMSO/Ref33) 25.27
[7] = Experiment 1, Ibrutinib at 3 μM, MOR00208 0.01 nM, control (0.1% DMSO/Ref33) 25.27
[8] = Experiment 1, Ibrutinib at 3 μM, MOR00208 0.1 nM, control (0.1% DMSO/Ref33) 25.27
[9] = Experiment 1, Ibrutinib at 3 μM, MOR00208 10 nM, control (0.1% DMSO/Ref33) 25.27
[10] = Experiment 2, Ibrutinib at 0.3 μM, MOR00208 0.01 nM, control (0.03% DMSO/Ref33) 9.81
[11] = Experiment 2, Ibrutinib at 0.3 μM, MOR00208 0.1 nM, control (0.03% DMSO/Ref33) 9.81
[12] = Experiment 2, Ibrutinib at 0.3 μM, MOR00208 10 nM, control (0.03% DMSO/Ref33) 9.81
[13] = Experiment 2, Ibrutinib at 1 μM, MOR00208 0.01 nM, control (0.03% DMSO/Ref33) 9.81
[14] = Experiment 2, Ibrutinib at 1 μM, MOR00208 0.1 nM, control (0.03% DMSO/Ref33) 9.81
[15] = Experiment 2, Ibrutinib at 1 μM, MOR00208 10 nM, control (0.03% DMSO/Ref33) 9.81
[16] = Experiment 2, Ibrutinib at 3 μM, MOR00208 0.01 nM, control (0.03% DMSO/Ref33) 9.81
[17] = Experiment 2, Ibrutinib at 3 μM, MOR00208 0.1 nM, control (0.03% DMSO/Ref33) 9.81
[18] = Experiment 2, Ibrutinib at 3 μM, MOR00208 10 nM, control (0.03% DMSO/Ref33) 9.81
[19] = Experiment 3, Ibrutinib at 0.3 μM, MOR00208 0.01 nM, control (0.03% DMSO/Ref33) 16.40
[20] = Experiment 3, Ibrutinib at 0.3 μM, MOR00208 0.1 nM, control (0.03% DMSO/Ref33) 16.40
[21] = Experiment 3, Ibrutinib at 0.3 μM, MOR00208 10 nM, control (0.03% DMSO/Ref33) 16.40
[22] = Experiment 3, Ibrutinib at 1 μM, MOR00208 0.01 nM, control (0.03% DMSO/Ref33) 16.40
[23] = Experiment 3, Ibrutinib at 1 μM, MOR00208 0.1 nM, control (0.03% DMSO/Ref33) 16.40
[24] = Experiment 3, Ibrutinib at 1 μM, MOR00208 10 nM, control (0.03% DMSO/Ref33) 16.40
[25] = Experiment 3, Ibrutinib at 3 μM, MOR00208 0.01 nM, control (0.03% DMSO/Ref33) 16.40
[26] = Experiment 3, Ibrutinib at 3 μM, MOR00208 0.1 nM, control (0.03% DMSO/Ref33) 16.40
[27] = Experiment 3, Ibrutinib at 3 μM, MOR00208 10 nM, control (0.03% DMSO/Ref33) 16.40

| Molecule | percent (%) dead cells (raw data) [1] [%] | percent (%) dead cells (raw data) [2] [%] | percent (%) dead cells (raw data) [3] [%] | percent (%) dead cells (raw data) [4] [%] | percent (%) dead cells (raw data) [5] [%] | percent (%) dead cells (raw data) [6] [%] | percent (%) dead cells (raw data) [7] [%] | percent (%) dead cells (raw data) [8] [%] | percent (%) dead cells (raw data) [9] [%] | percent (%) dead cells (raw data) [10] [%] | percent (%) dead cells (raw data) [11] [%] | percent (%) dead cells (raw data) [12] [%] | percent (%) dead cells (raw data) [13] [%] | percent (%) dead cells (raw data) [14] [%] | percent (%) dead cells (raw data) [15] [%] | percent (%) dead cells (raw data) [16] [%] | percent (%) dead cells (raw data) [17] [%] | percent (%) dead cells (raw data) [18] [%] | percent (%) dead cells (raw data) [19] [%] | percent (%) dead cells (raw data) [20] [%] | further results |
| --- | --- | --- | --- | --- | --- | --- | --- | --- | --- | --- | --- | --- | --- | --- | --- | --- | --- | --- | --- | --- | --- |
| C=CC(=O)N1CCC[C@@H](n2nc(-c3ccc(Oc4ccccc4)cc3)c3c(N)ncnc32)C1 [Ibrutinib, 1-[(3R)-3-[4-amino-3-(4-phenoxyphenyl)-1H-pyrazolo[3,4-d]pyrimidin-1-yl]-1-piperidinyl]-2-propen-1-one] | 21.99 | 21.99 | 21.99 | 24.33 | 24.33 | 24.33 | 17.07 | 17.07 | 17.07 | 8.56 | 8.56 | 8.56 | 8.39 | 8.39 | 8.39 | 10.84 | 10.84 | 10.84 | 8.56 | 8.56 | percent (%) dead cells (raw data) [21]: 8.56%; percent (%) dead cells (raw data) [22]: 7.50%; percent (%) dead cells (raw data) [23]: 7.50%; percent (%) dead cells (raw data) [24]: 7.50%; percent (%) dead cells (raw data) [25]: 8.26%; percent (%) dead cells (raw data) [26]: 8.26%; percent (%) dead cells (raw data) [27]: 8.26% |
| B1 | 56.54 | 72.31 | 73.77 | 56.54 | 72.31 | 73.77 | 56.54 | 72.31 | 73.77 | 37.57 | 52.10 | 50.83 | 37.57 | 52.10 | 50.83 | 37.57 | 52.10 | 50.83 | 63.68 | 81.30 | percent (%) dead cells (raw data) [21]: 81.41%; percent (%) dead cells (raw data) [22]: 63.68%; percent (%) dead cells (raw data) [23]: 81.30%; percent (%) dead cells (raw data) [24]: 81.41%; percent (%) dead cells (raw data) [25]: 63.68%; percent (%) dead cells (raw data) [26]: 81.30%; percent (%) dead cells (raw data) [27]: 81.41% |
